This is an account of results in US20230041996A1, “CALCIUM-SENSING RECEPTOR AGONIST COMPOUND AND APPLICATION THEREOF” (BEIJING TUO JIE BIOPHARMACEUTICAL CO. LTD., priority 2019, published 2023).

One may read the EC50 as the midpoint of the concentration-response curve.

In data set [1] the target is T1, human calcium-sensing receptor (CaSR) (Homo sapiens, UniProt P41180).
T1 construct: host or cells: HEK293
T1 sequence (P41180 20-1078): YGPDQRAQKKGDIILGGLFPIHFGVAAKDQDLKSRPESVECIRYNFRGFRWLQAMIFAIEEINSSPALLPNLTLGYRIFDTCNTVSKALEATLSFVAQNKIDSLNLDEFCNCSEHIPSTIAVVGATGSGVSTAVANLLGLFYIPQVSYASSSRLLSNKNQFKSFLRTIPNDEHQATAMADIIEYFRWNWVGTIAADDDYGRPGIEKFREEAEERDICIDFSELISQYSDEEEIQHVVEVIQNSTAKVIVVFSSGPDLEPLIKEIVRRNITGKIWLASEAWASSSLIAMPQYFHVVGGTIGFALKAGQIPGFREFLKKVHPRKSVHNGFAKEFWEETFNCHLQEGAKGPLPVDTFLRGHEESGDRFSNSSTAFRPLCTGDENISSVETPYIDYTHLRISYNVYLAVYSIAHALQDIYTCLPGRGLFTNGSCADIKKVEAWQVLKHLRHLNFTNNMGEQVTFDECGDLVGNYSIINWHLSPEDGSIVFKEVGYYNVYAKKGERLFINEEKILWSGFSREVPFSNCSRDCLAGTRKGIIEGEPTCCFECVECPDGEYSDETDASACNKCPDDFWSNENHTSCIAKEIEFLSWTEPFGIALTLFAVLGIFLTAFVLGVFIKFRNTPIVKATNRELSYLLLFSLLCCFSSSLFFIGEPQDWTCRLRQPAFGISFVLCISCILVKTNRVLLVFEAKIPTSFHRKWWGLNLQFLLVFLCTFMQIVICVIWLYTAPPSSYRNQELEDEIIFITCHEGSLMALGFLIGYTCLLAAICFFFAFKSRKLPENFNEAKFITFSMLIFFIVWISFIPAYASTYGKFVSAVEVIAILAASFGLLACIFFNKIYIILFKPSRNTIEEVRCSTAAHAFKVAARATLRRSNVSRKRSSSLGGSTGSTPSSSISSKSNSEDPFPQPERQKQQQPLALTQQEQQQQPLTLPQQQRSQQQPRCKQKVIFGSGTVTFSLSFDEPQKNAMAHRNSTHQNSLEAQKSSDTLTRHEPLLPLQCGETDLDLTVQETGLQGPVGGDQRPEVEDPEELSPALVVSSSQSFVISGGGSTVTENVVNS
Kind of data set: Agonist activity on human calcium-sensing receptor (IP-One HTRF in stably transfected HEK293/CaSR cells). The format is cell-based. As for the experimental part:
3.1.1 Objective: The test example is intended to measure the agonist activity of compounds 1-38 on the human calcium-sensing receptor (CaSR).
Stably transfected HEK293/CaSR cells (source: Pharmaron) were cultured in a complete medium (composition: DMEM, high glucose+10% FBS+2 mM GlutaMAX+1× Penicillin-Streptomycin+200 μg/mL Hygromycin B) and incubated at 37° C./5% CO2 till 70%-90% cell confluence. The cells were digested with TrypLE, inoculated into 384-well cell culture plates, and cultured overnight at 37° C./5% CO2. After buffer exchange, stimulation buffer (HEPES 10 mM, MgCl2 0.5 mM, KCl 4.2 mM, NaCl 146 mM, glucose 5.5 mM, LiCl 50 mM, CaCl2 1.2 mM) and various concentrations of the test example compounds were added and incubated at 37° C. for 60 min. Production of IP-One in cells was detected according to the procedures in the Cisbio IP-One Tb kit instructions. The EC50 values of various test example compounds in influencing human calcium-sensing receptor was calculated by software after the raw data of the example compounds were collected, so as to evaluate the agonist activity of the example compounds on human calcium-sensing receptor.
HTRF signal was read by an EnVision detector with an excitation wavelength of 320 nm and emission wavelengths of 620 nm and 665 nm. The signal ratio (665 nm/620 nm×10,000) was calculated and fitted non-linearly to the sample concentration in GraphPad Prism 6 using a four-parameter equation to give EC50 values of the test example compounds 1-38.

Data set [2] has as its system rat peritoneal mast cells. Kind of data set: In vitro histamine release in rat peritoneal mast cells (histamine ELISA). The conditions noted are these: test compound final concentration 10 μM, 15 min at 37° C., relative to PBS buffer (1.00). It is filed as cell-based. As for the experimental part:
To evaluate the in vitro histamine release levels induced by some of the test example compounds, rat peritoneal mast cells were collected by lavaging rat peritoneum with a lavage buffer (cold HBSS+25 mM HEPES containing heparin 5 U/mL, pH 7.4). After collection, the cells were centrifuged, and the lavage buffer was discarded. The cells were resuspended and washed twice with a stimulation buffer (HBSS+25 mM HEPES+1 mM CaCl2), pH 7.4). The cells were plated at a density of 10^5 cell/well (200 μL/well) and incubated at 37° C. for 15 min with positive control compound 48/80 (final concentration: 4 μg/mL), test example compounds (final concentration: 10 μM) or vehicle control. The cells were centrifuged, and cell supernatant was collected and tested for histamine concentration according to LDN Histamine ELISA kit (BAE-1000) instructions.
A general note: ELISA stands for enzyme-linked immunosorbent assay.

Setting [3] is: HEK293/CaSR cells, IP-One production, 60 min at 37° C., CaCl2 1.2 mM, read-out: EC50 for calcium-sensing receptor.

Read-outs that look alike come from different tables or passages of the source. Square brackets hold non-standard residues; d marks the D form. Peptide text beside a SMILES is read from it. * marks the point of attachment. dPhe(4-NO2) = N[C@H](Cc1ccc([N+](=O)[O-])cc1)C(=O)O; dPhe(4-Me) = Cc1ccc(C[C@@H](N)C(=O)O)cc1; Cys(free,S-linked) = N[C@@H](CS*)C(=O)O; d2Nal = N[C@H](Cc1ccc2ccccc2c1)C(=O)O; dChg = N[C@@H](C(=O)O)C1CCCCC1; dTle = CC(C)(C)[C@@H](N)C(=O)O

For `CC(=O)N[C@H](CSSC[C@H](N)C(=O)O)C(=O)N[C@H](CCCNC(=N)N)C(=O)N[C@H](CCCNC(=N)N)C(=O)N[C@H](Cc1c[nH]cn1)C(=O)N[C@H](CCCNC(=N)N)C(=O)NCC(=O)N[C@H](CCCNC(=N)N)C(N)=O` [Compound 28, Ac-c(C)-r-r-h-r-G-r-NH2] (Ac-[dC](Cys(free,S-linked))[dR][dR][dH][dR]G[dR]-NH2), the EC50 in data set [1] (setting [3]) was found to be 21.5 µM.
As to `CC(=O)N[C@H](CSSC[C@H](N)C(=O)O)C(=O)N[C@H](Cc1c[nH]cn1)C(=O)N[C@H](CCCNC(=N)N)C(=O)N[C@H](CCCNC(=N)N)C(=O)N[C@H](CCCNC(=N)N)C(=O)NCC(=O)N[C@H](CCCNC(=N)N)C(N)=O` [Compound 7, Ac-c(C)-h-r-r-r-G-r-NH2] (Ac-[dC](Cys(free,S-linked))[dH][dR][dR][dR]G[dR]-NH2), the concentration for a half-maximal effect (EC50) in data set [1] (setting [3]) is 18.6 µM. Besides, the “Relative fold of histamine release in vitro” value (“Relative fold” below) in data set [2] turned out to be 2.24.
As for `CC(=O)N[C@H](CSSC[C@H](N)C(=O)O)C(=O)N[C@H](CCCNC(=N)N)C(=O)N[C@H](CCCNC(=N)N)C(=O)N[C@H](C)C(=O)N[C@H](CCCNC(=N)N)C(=O)N[C@H](C)C(=O)N[C@H](CCCNC(=N)N)C(N)=O` [Etelcalcetide analogue, Ac-c(C)-r-r-a-r-a-r-NH2, reference compound] (Ac-[dC](Cys(free,S-linked))[dR][dR][dA][dR][dA][dR]-NH2), the EC50 in data set [1] stood at 6.74 µM.
For `CC(=O)N[C@H](CSSC[C@H](N)C(=O)O)C(=O)N[C@H](CCCNC(=N)N)C(=O)N[C@H](CCCNC(=N)N)C(=O)N[C@H](CO)C(=O)N[C@H](CCCNC(=N)N)C(=O)N[C@H](CO)C(=O)N[C@H](CCCNC(=N)N)C(N)=O` [Compound 25, Ac-c(C)-r-r-s-r-s-r-NH2] (Ac-[dC](Cys(free,S-linked))[dR][dR][dS][dR][dS][dR]-NH2), the EC50 in data set [1] (setting [3]) was 10.1 µM. In addition, in data set [2], the “Relative fold” value was 1.65.
In the case of `CC(=O)N[C@H](CSSC[C@H](N)C(=O)O)C(=O)N[C@H](CCCNC(=N)N)C(=O)N[C@H](CCCNC(=N)N)C(=O)N[C@@H](C(=O)N[C@H](CCCNC(=N)N)C(=O)NCC(=O)N[C@H](CCCNC(=N)N)C(N)=O)C(C)(C)C` [Compound 38, Ac-c(C)-r-r-(D-Tle)-r-G-r-NH2] (Ac-[dC](Cys(free,S-linked))[dR][dR][dTle][dR]G[dR]-NH2), the EC50 in data set [1] (setting [3]) is 18.7 µM.
For the compound `CC(=O)N[C@H](CSSC[C@H](N)C(=O)O)C(=O)N[C@H](CO)C(=O)N[C@H](CCCNC(=N)N)C(=O)N[C@H](CCCNC(=N)N)C(=O)N[C@H](CCCNC(=N)N)C(=O)N[C@H](CO)C(=O)N[C@H](CCCNC(=N)N)C(N)=O` [Compound 6, Ac-c(C)-s-r-r-r-s-r-NH2] (Ac-[dC](Cys(free,S-linked))[dS][dR][dR][dR][dS][dR]-NH2), in data set [1] (setting [3]), the 50% effective concentration (EC50) was 11.6 µM. Moreover, the “Relative fold” value in data set [2] came out at 1.65.
The matching figures for `CC(=O)N[C@H](CSSC[C@H](N)C(=O)O)C(=O)N[C@H](Cc1c[nH]cn1)C(=O)N[C@H](CCCNC(=N)N)C(=O)N[C@H](CCCNC(=N)N)C(=O)N[C@H](CCCNC(=N)N)C(=O)N[C@H](CO)C(=O)N[C@H](CCCNC(=N)N)C(N)=O` [Compound 10, Ac-c(C)-h-r-r-r-s-r-NH2] (Ac-[dC](Cys(free,S-linked))[dH][dR][dR][dR][dS][dR]-NH2): 3.52 µM and 3.66.
The matching figures for `CC(=O)N[C@H](CSSC[C@H](N)C(=O)O)C(=O)N[C@H](CCCNC(=N)N)C(=O)N[C@H](CCCNC(=N)N)C(=O)N[C@@H](C(=O)N[C@H](CCCNC(=N)N)C(=O)N[C@H](CO)C(=O)N[C@H](CCCNC(=N)N)C(N)=O)C1CCCCC1` [Compound 35, Ac-c(C)-r-r-(D-Chg)-r-s-r-NH2] (Ac-[dC](Cys(free,S-linked))[dR][dR][dChg][dR][dS][dR]-NH2): 12.9 µM and 2.06.
Regarding `CC(=O)N[C@H](CSSC[C@H](N)C(=O)O)C(=O)N[C@H](CCCNC(=N)N)C(=O)N[C@H](CCCNC(=N)N)C(=O)N[C@H](CCC(N)=O)C(=O)N[C@H](CCCNC(=N)N)C(=O)NCC(=O)N[C@H](CCCNC(=N)N)C(N)=O` [Compound 23, Ac-c(C)-r-r-q-r-G-r-NH2] (Ac-[dC](Cys(free,S-linked))[dR][dR][dQ][dR]G[dR]-NH2), in data set [1] (setting [3]), the EC50 turned out to be 30.4 µM.
Same read-out and setting: with `CC(=O)N[C@H](CSSC[C@H](N)C(=O)O)C(=O)N[C@H](Cc1c[nH]c2ccccc12)C(=O)N[C@H](CCCNC(=N)N)C(=O)N[C@H](CCCNC(=N)N)C(=O)N[C@H](CCCNC(=N)N)C(=O)NCC(=O)N[C@H](CCCNC(=N)N)C(N)=O` [Compound 9, Ac-c(C)-w-r-r-r-G-r-NH2] (Ac-[dC](Cys(free,S-linked))[dW][dR][dR][dR]G[dR]-NH2) the figure was 3.16 µM; with `CC(=O)N[C@H](CSSC[C@H](N)C(=O)O)C(=O)N[C@H](Cc1ccc(C)cc1)C(=O)N[C@H](CCCNC(=N)N)C(=O)N[C@H](CCCNC(=N)N)C(=O)N[C@H](CCCNC(=N)N)C(=O)N[C@H](C)C(=O)N[C@H](CCCNC(=N)N)C(N)=O` [Compound 3, Ac-c(C)-[D-Phe(4-CH3)]-r-r-r-a-r-NH2] (Ac-[dC](Cys(free,S-linked))[dPhe(4-Me)][dR][dR][dR][dA][dR]-NH2), 15.3 µM; with `CC(=O)N[C@H](CSSC[C@H](N)C(=O)O)C(=O)N[C@H](CCCNC(=N)N)C(=O)N[C@H](CCCNC(=N)N)C(=O)N[C@@H](C(=O)N[C@H](CCCNC(=N)N)C(=O)NCC(=O)N[C@H](CCCNC(=N)N)C(N)=O)C1CCCCC1` [Compound 36, Ac-c(C)-r-r-(D-Chg)-r-G-r-NH2] (Ac-[dC](Cys(free,S-linked))[dR][dR][dChg][dR]G[dR]-NH2), 17.9 µM.
Same read-out and setting: for `CC(=O)N[C@H](CSSC[C@H](N)C(=O)O)C(=O)N[C@H](CCCNC(=N)N)C(=O)N[C@H](CCCNC(=N)N)C(=O)N[C@H](Cc1ccc([N+](=O)[O-])cc1)C(=O)N[C@H](CCCNC(=N)N)C(=O)N[C@H](C)C(=O)N[C@H](CCCNC(=N)N)C(N)=O` [Compound 14, Ac-c(C)-r-r-[D-Phe(4-NO2)]-r-a-r-NH2] (Ac-[dC](Cys(free,S-linked))[dR][dR][dPhe(4-NO2)][dR][dA][dR]-NH2) the value was 4.33 µM.
On the same count and under the same terms, for `CC(=O)N[C@H](CSSC[C@H](N)C(=O)O)C(=O)N[C@H](CCCNC(=N)N)C(=O)N[C@H](CCCNC(=N)N)C(=O)N[C@H](Cc1ccc2ccccc2c1)C(=O)N[C@H](CCCNC(=N)N)C(=O)N[C@H](C)C(=O)N[C@H](CCCNC(=N)N)C(N)=O` [Compound 15, Ac-c(C)-r-r-(D-2-NaI)-r-a-r-NH2] (Ac-[dC](Cys(free,S-linked))[dR][dR][d2Nal][dR][dA][dR]-NH2) the value was 5.59 µM.
